What was measured:
[1] = refractive index (Na D-line) (dimensionless); xn = mol fraction of the nth substance listed; conditions: 100 kPa, Liquid, Standard Abbe refractometry
[2] = xn = mol fraction of the nth substance listed; conditions: 100 kPa, Liquid; for speed of sound: Frequency=3 MHz, Single path-length method; for mass density: Vibrating tube method

CCOCCO [2-ethoxyethan-1-ol] + CCOC(=O)OCC
Conditions | mass density, [2] [kg/m3] | refractive index, [1] | speed of sound, [2] [m/s]
298.15 K, x2 = 0 | 925.54 | 1.4055 | 1302.8
298.15 K, x2 = 0.0957 | 929.94 | 1.4036 | 1287
298.15 K, x2 = 0.1529 | 932.54 | 1.4025 | 1278.3
298.15 K, x2 = 0.2624 | 937.43 | 1.4003 | 1262.2
298.15 K, x2 = 0.3484 | 941.21 | 1.3985 | 1250
298.15 K, x2 = 0.4447 | 945.38 | 1.3963 | 1236.7
298.15 K, x2 = 0.5468 | 949.76 | 1.3939 | 1223.5
298.15 K, x2 = 0.6539 | 954.3 | 1.3912 | 1210.8
298.15 K, x2 = 0.7721 | 959.31 | 1.3882 | 1198.3
298.15 K, x2 = 0.8793 | 963.87 | 1.3855 | 1188
303.15 K, x2 = 0 | 920.99 | 1.4042 | 1285
303.15 K, x2 = 0.0957 | 925.24 | 1.4024 | 1268.9
303.15 K, x2 = 0.1529 | 927.76 | 1.4012 | 1259.8
303.15 K, x2 = 0.2624 | 932.5 | 1.3989 | 1243.4
303.15 K, x2 = 0.3484 | 936.17 | 1.397 | 1230.7
303.15 K, x2 = 0.4447 | 940.24 | 1.3947 | 1217.3
303.15 K, x2 = 0.5468 | 944.5 | 1.3921 | 1204
303.15 K, x2 = 0.6539 | 948.94 | 1.3894 | 1191.1
303.15 K, x2 = 0.7721 | 953.83 | 1.3862 | 1178.3
303.15 K, x2 = 0.8793 | 958.31 | 1.3834 | 1167.8
308.15 K, x2 = 0 | 916.41 | 1.4028 | 1267.3
308.15 K, x2 = 0.0957 | 920.51 | 1.4011 | 1250.7
308.15 K, x2 = 0.1529 | 922.94 | 1.3999 | 1241.3
308.15 K, x2 = 0.2624 | 927.54 | 1.3975 | 1224.6
308.15 K, x2 = 0.3484 | 931.11 | 1.3954 | 1211.9
308.15 K, x2 = 0.4447 | 935.08 | 1.393 | 1198.3
308.15 K, x2 = 0.5468 | 939.21 | 1.3904 | 1184.7
308.15 K, x2 = 0.6539 | 943.54 | 1.3875 | 1171.6
308.15 K, x2 = 0.7721 | 948.31 | 1.3843 | 1158.4
308.15 K, x2 = 0.8793 | 952.72 | 1.3813 | 1147.6
313.15 K, x2 = 0 | 911.8 | 1.4016 | 1249.6
313.15 K, x2 = 0.0957 | 915.76 | 1.3999 | 1232.5
313.15 K, x2 = 0.1529 | 918.09 | 1.3987 | 1223
313.15 K, x2 = 0.2624 | 922.55 | 1.3961 | 1205.9
313.15 K, x2 = 0.3484 | 926 | 1.3939 | 1193
313.15 K, x2 = 0.4447 | 929.84 | 1.3914 | 1179.3
313.15 K, x2 = 0.5468 | 933.88 | 1.3886 | 1165.6
313.15 K, x2 = 0.6539 | 938.09 | 1.3857 | 1152.1
313.15 K, x2 = 0.7721 | 942.77 | 1.3823 | 1138.6
313.15 K, x2 = 0.8793 | 947.11 | 1.3792 | 1127.5
318.15 K, x2 = 0 | 907.15 | 1.4001 | 1232
318.15 K, x2 = 0.0957 | 910.93 | 1.3986 | 1214.4
318.15 K, x2 = 0.1529 | 913.21 | 1.3973 | 1204.6
318.15 K, x2 = 0.2624 | 917.51 | 1.3946 | 1187.2
318.15 K, x2 = 0.3484 | 920.86 | 1.3923 | 1174.3
318.15 K, x2 = 0.4447 | 924.57 | 1.3897 | 1160.4
318.15 K, x2 = 0.5468 | 928.49 | 1.3868 | 1146.6
318.15 K, x2 = 0.6539 | 932.6 | 1.3838 | 1132.8
318.15 K, x2 = 0.7721 | 937.19 | 1.3804 | 1119
318.15 K, x2 = 0.8793 | 941.45 | 1.377 | 1107.8
323.15 K, x2 = 0 | 902.46 | 1.3988 | 1214.3
323.15 K, x2 = 0.0957 | 906.11 | 1.3973 | 1196.3
323.15 K, x2 = 0.1529 | 908.28 | 1.396 | 1186.3
323.15 K, x2 = 0.2624 | 912.44 | 1.3931 | 1168.7
323.15 K, x2 = 0.3484 | 915.7 | 1.3907 | 1155.6
323.15 K, x2 = 0.4447 | 919.3 | 1.388 | 1141.6
323.15 K, x2 = 0.5468 | 923.1 | 1.3851 | 1127.5
323.15 K, x2 = 0.6539 | 927.1 | 1.382 | 1113.6
323.15 K, x2 = 0.7721 | 931.58 | 1.3784 | 1099.6
323.15 K, x2 = 0.8793 | 935.76 | 1.3749 | 1088.1

— the NIST ThermoML archive (doi:10.1016/j.jct.2016.11.002)
